Data from publication PMC5458078, “Global mapping of CARM1 substrates defines enzyme specificity and substrate recognition” (Nature Communications, 2017).

test system: MCF7 cells; assay: Quantitative nanoLC-MS/MS (TMT) of ADMA-containing peptides, CARM1 KO vs parental; assay type: cell-based, human; design: Fold change KO/WT: scale not given here; details: MCF7, CARM1 KO (KO1-KO3) vs wild type (WT1-WT3)

Compared with SPGVFRPEQDPVPrMPFEK, APGPrGSYLGGYSAGrGIYSR is higher in “Fold change KO/WT” value: -2.083 for the first, 0.2541 for the second.

Going from ErDQLYYECYSDVSVHEEMIADR to LQLGTPPPLLAArLVPPR, the “Fold change KO/WT” value falls from -0.1341 to -2.7388.

Going from “MGTPVPRPPQDMGQIGVrTPLGPrVAAPVGPVGPTPTVLPMGAPVPRPrGPPPPPGDENR” to DQPGTSAVPNLASVGTrLPPPLPQNLLYTVSER, the “Fold change KO/WT” value falls from -3.388 to -4.596.

Compared with RPPPEHFrRPPPEHFR, GPLPPPRPTPrPPVPPrGPLrGPLPQ is lower in “Fold change KO/WT” value: -0.5356 for the first, -0.7434 for the second.

First: VFrYSTSLEK
Second: VGVPPQNPrPSLNSAPSPFNPQGQSQITDPR
The “Fold change KO/WT” value of the first is higher: 0.0856 for the first, -2.569 for the second.

In the case of APGPrGSYLGGYSAGR, the “Fold change KO/WT” value is reported as -0.1976.

same assay, conditions: MCF7, CARM1 KO vs WT, three biological replicates each

First: TATVTIrPNTSGSGGTTSNSQVITGPQIrPGMTVIRTPLQQSTLGK
Second: TNRPGISTTDrGFPrArYR
The “Fold change KO/WT” value of the first is lower: -1.078 for the first, -0.1094 for the second.

Compared with QVHPFHVYPQPGMQrFR, WrYNKPLPPTPDLPQPHLPPISAPGSSR is lower in “Fold change KO/WT” value: -0.1867 for the first, -1.565 for the second.

Going from SQAPArYSLQSANASSLSSGQLK to GArGLMNGYR, the “Fold change KO/WT” value rises from -4.438 to 0.02481.

Compared with FArVPLALHPVVGQPFLK, NrGAGGFGGGGGTR is higher in “Fold change KO/WT” value: -2.764 for the first, -0.03405 for the second.

same assay, conditions: MCF7, CARM1 knockout vs wild type, n = 3 each

Compared with TRNPFLTGLSAPSPTNPFGAGEPGrPTLNQMR, GrGFAGVCGFGGPYGETVATGPYrAFR is lower in “Fold change KO/WT” value: -1.766 for the first, -1.965 for the second.

First: GGrGPFPLQVVSVGGPAR
Second: AQPFAQPPGPWPLSSPGPrLVFNR
The “Fold change KO/WT” value of the first is higher: -0.2975 for the first, -4.7261 for the second.

Compared with VPrFSSLSSCNPPAMATSAEK, CAGFLEPTWLAAPPrLARPPR is lower in “Fold change KO/WT” value: -1.804 for the first, -1.902 for the second.

same assay, conditions: MCF7 CARM1 knockout vs wild type, 3 biological replicates each; values are on log2 scale

First: FrHNIAYFPQIVSVAAR
Second: GFYPQYGALETrGGFNPR
The “Fold change KO/WT” value of the first is lower: -0.6457 for the first, -0.3326 for the second.

First: APVFPGrGSYSNR
Second: QLVGGSQAFYQrAPYPGSLPLQQQQQQLWQQQQATAATSMrFAMSARFPSTPGPELGR
The “Fold change KO/WT” value of the first is higher: -0.1545 for the first, -2.512 for the second.

Compared with HSAYSYCGrGFYPQYGALETrGGFNPR, QLQLQQQrMQLAQK is lower in “Fold change KO/WT” value: -0.3157 for the first, -4.395 for the second.

Going from GLGPGGTPFPGQGPPQrPrFYPVSEDPHR to GSRLPLALPPASQGCSSGGGGGGGGGSSAGGSGNSrPPR, the “Fold change KO/WT” value rises from -1.165 to -0.9721.

In the case of APVFPGrGSYSNr, the “Fold change KO/WT” value is reported as 0.2723.

test system: MCF7 CARM1 KO cells; assay: Quantitative MS of ADMA-containing peptides in MCF7 CARM1 KO cells expressing CARM1 28-608 or CARM1 140-608, and in CARM1 KO; assay type: cell-based, human; details: not given

With QLQLQQQrMQLAQK the “CARM1 140-608/WT” value was -2.654.

For QLQLQQQrMQLAQK, the KO/WT was -4.55.

same assay, conditions: CARM1 140-608 versus WT, mean of three replicates (log2)

First: ErDQLYYECYSDVSVHEEMIADR
Second: LQLGTPPPLLAArLVPPR
The “CARM1 140-608/WT” value of the first is higher: -0.3168 for the first, -3.287 for the second.

First: DQPGTSAVPNLASVGTrLPPPLPQNLLYTVSER
Second: RPPPEHFrRPPPEHFR
The “CARM1 140-608/WT” value of the first is lower: -1.1192 for the first, -0.8789 for the second.

same assay, conditions: CARM1 140-608 vs WT, mean of 3 replicates (log2 scale)

Going from SPGVFRPEQDPVPrMPFEK to APGPrGSYLGGYSAGrGIYSR, the “CARM1 140-608/WT” value rises from -0.5664 to 0.2879.

Going from “MGTPVPRPPQDMGQIGVrTPLGPrVAAPVGPVGPTPTVLPMGAPVPRPrGPPPPPGDENR” to GPLPPPRPTPrPPVPPrGPLrGPLPQ, the “CARM1 140-608/WT” value rises from -2.483 to 0.8489.

Going from VFrYSTSLEK to VGVPPQNPrPSLNSAPSPFNPQGQSQITDPR, the “CARM1 140-608/WT” value falls from 0.01169 to -2.085.

With APGPrGSYLGGYSAGR the “CARM1 140-608/WT” value was -0.09328.

same assay, conditions: CARM1 140-608 vs WT, mean of 3 replicates, log2

Going from “TATVTIrPNTSGSGGTTSNSQVITGPQIrPGMTVIRTPLQQSTLGK” to TNRPGISTTDrGFPrArYR, the “CARM1 140-608/WT” value falls from 2.998 to -0.4847.

Compared with QVHPFHVYPQPGMQrFR, WrYNKPLPPTPDLPQPHLPPISAPGSSR is lower in “CARM1 140-608/WT” value: -0.2745 for the first, -1.118 for the second.

Compared with SQAPArYSLQSANASSLSSGQLK, GArGLMNGYR is higher in “CARM1 140-608/WT” value: -3.491 for the first, 0.7786 for the second.

In the case of NrGAGGFGGGGGTR, the “CARM1 140-608/WT” value is reported as 0.06902.

same assay, conditions: KO versus WT, mean of three replicates (log2)

Going from ErDQLYYECYSDVSVHEEMIADR to LQLGTPPPLLAArLVPPR, the KO/WT falls from -0.6326 to -5.072.

Compared with DQPGTSAVPNLASVGTrLPPPLPQNLLYTVSER, RPPPEHFrRPPPEHFR is higher in KO/WT: -4.635 for the first, -0.5356 for the second.

same assay, conditions: KO vs WT, mean of 3 replicates (log2 scale)

Going from SPGVFRPEQDPVPrMPFEK to APGPrGSYLGGYSAGrGIYSR, the KO/WT rises from -2.083 to 0.5206.

Compared with “MGTPVPRPPQDMGQIGVrTPLGPrVAAPVGPVGPTPTVLPMGAPVPRPrGPPPPPGDENR”, GPLPPPRPTPrPPVPPrGPLrGPLPQ is higher in KO/WT: -3.388 for the first, -0.7434 for the second.

First: VFrYSTSLEK
Second: VGVPPQNPrPSLNSAPSPFNPQGQSQITDPR
The KO/WT of the first is higher: 0.0856 for the first, -2.569 for the second.

APGPrGSYLGGYSAGR gave a KO/WT of -0.2416.

same assay, conditions: KO vs WT, mean of 3 replicates, log2

Going from “TATVTIrPNTSGSGGTTSNSQVITGPQIrPGMTVIRTPLQQSTLGK” to TNRPGISTTDrGFPrArYR, the KO/WT rises from -1.078 to -0.1094.

First: QVHPFHVYPQPGMQrFR
Second: WrYNKPLPPTPDLPQPHLPPISAPGSSR
The KO/WT of the first is higher: -0.1867 for the first, -1.565 for the second.

First: SQAPArYSLQSANASSLSSGQLK
Second: GArGLMNGYR
The KO/WT of the first is lower: -4.438 for the first, 0.02481 for the second.

In the case of NrGAGGFGGGGGTR, the KO/WT is reported as 0.4755.

same assay, conditions: difference of log2 means, CARM1 140-608 vs WT

Compared with “QLVGGSQAFYQrAPYPGSLPLQQQQQQLWQQQQATAATSMrFAMSARFPSTPGPELGR”, GLGPGGTPFPGQGPPQrPrFYPVSEDPHR is higher in “CARM1 140-608/WT” value: -1.475 for the first, -1.244 for the second.

same assay, conditions: difference of log2 means, KO vs WT

Compared with “QLVGGSQAFYQrAPYPGSLPLQQQQQQLWQQQQATAATSMrFAMSARFPSTPGPELGR”, GLGPGGTPFPGQGPPQrPrFYPVSEDPHR is higher in KO/WT: -2.512 for the first, -1.165 for the second.

same assay, conditions: mean, CARM1 140-608 versus WT (log2 scale)

Going from FrHNIAYFPQIVSVAAR to GFYPQYGALETrGGFNPR, the “CARM1 140-608/WT” value falls from -0.3364 to -0.6578.

Compared with APVFPGrGSYSNR, VPrFSSLSSCNPPAMATSAEK is lower in “CARM1 140-608/WT” value: 0.1704 for the first, -1.357 for the second.

Compared with HSAYSYCGrGFYPQYGALETrGGFNPR, GSRLPLALPPASQGCSSGGGGGGGGGSSAGGSGNSrPPR is lower in “CARM1 140-608/WT” value: -0.5986 for the first, -0.7656 for the second.

In the case of APVFPGrGSYSNr, the “CARM1 140-608/WT” value is reported as 0.2637.

same assay, conditions: mean, CARM1 KO versus WT (log2 scale)

Compared with FrHNIAYFPQIVSVAAR, GFYPQYGALETrGGFNPR is higher in KO/WT: -0.6457 for the first, -0.432 for the second.

Compared with APVFPGrGSYSNR, VPrFSSLSSCNPPAMATSAEK is lower in KO/WT: 0.1127 for the first, -1.804 for the second.

Compared with HSAYSYCGrGFYPQYGALETrGGFNPR, GSRLPLALPPASQGCSSGGGGGGGGGSSAGGSGNSrPPR is lower in KO/WT: -0.0486 for the first, -0.9721 for the second.

APVFPGrGSYSNr showed a KO/WT of 0.3482.

same assay, conditions: ratio on log2 scale, mean of 3 replicates

Compared with TRNPFLTGLSAPSPTNPFGAGEPGrPTLNQMR, GrGFAGVCGFGGPYGETVATGPYrAFR is lower in “CARM1 140-608/WT” value: -1.179 for the first, -1.219 for the second.

Going from GGrGPFPLQVVSVGGPAR to AQPFAQPPGPWPLSSPGPrLVFNR, the “CARM1 140-608/WT” value falls from -0.1124 to -2.181.

First: CAGFLEPTWLAAPPrLARPPR
Second: FArVPLALHPVVGQPFLK
The “CARM1 140-608/WT” value of the first is higher: -0.2739 for the first, -2.105 for the second.

First: TRNPFLTGLSAPSPTNPFGAGEPGrPTLNQMR
Second: GrGFAGVCGFGGPYGETVATGPYrAFR
The KO/WT of the first is higher: -1.766 for the first, -1.965 for the second.

Compared with GGrGPFPLQVVSVGGPAR, AQPFAQPPGPWPLSSPGPrLVFNR is lower in KO/WT: -0.2975 for the first, -4.994 for the second.

First: CAGFLEPTWLAAPPrLARPPR
Second: FArVPLALHPVVGQPFLK
The KO/WT of the first is higher: -1.902 for the first, -2.764 for the second.
